Test results reported in US7488742B2, “Thrombin receptor antagonists” (Schering Corporation, priority 2000, dated 2009).
pIC50: −log10 of the molar value.

Target: T1, thrombin receptor (Homo sapiens, UniProt P25116)
T1 construct: tissue North Jersey Blood Center (East Orange, N.J.); host or cells: platelet membranes from platelet concentrates
T1 sequence (P25116 22-425): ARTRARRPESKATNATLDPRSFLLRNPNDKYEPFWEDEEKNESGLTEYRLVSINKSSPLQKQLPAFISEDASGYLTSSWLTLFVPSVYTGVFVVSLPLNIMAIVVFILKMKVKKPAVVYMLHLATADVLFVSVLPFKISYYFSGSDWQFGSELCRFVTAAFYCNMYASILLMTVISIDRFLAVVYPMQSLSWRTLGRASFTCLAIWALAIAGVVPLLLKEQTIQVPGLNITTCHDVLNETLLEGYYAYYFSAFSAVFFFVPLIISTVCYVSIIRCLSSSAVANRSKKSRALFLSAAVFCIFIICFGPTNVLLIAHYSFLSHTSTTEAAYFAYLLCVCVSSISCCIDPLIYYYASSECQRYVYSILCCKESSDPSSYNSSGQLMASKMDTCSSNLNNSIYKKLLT
Experiment: High throughput thrombin receptor radioligand binding assay ([3H]haTRAP, platelet membranes)
Details: [3H]haTRAP binding to platelet membranes; read-out: thrombin receptor IC50 (concentration at which a 50% inhibition of thrombin receptor was observed)
Protocol: In Vitro Testing Procedure for Thrombin Receptor Antagonists:
The vessel was attached to the tritium line, frozen in liquid nitrogen and evacuated. […] At the completion of the reaction, the excess tritium was removed and the reacted peptide solution was diluted with DMF (0.5 ml) and filtered to remove the catalyst. The collected DMF solution of the crude peptide was diluted with water and freeze dried to remove the labile tritium. The solid peptide was redissolved in water and the freeze drying process repeated.
All steps were carried out at 4° C. under approved biohazard safety conditions. Platelets were centrifuged at 100×g for 20 minutes at 4° C. to remove red cells. The supernatants were decanted and centrifuged at 3000×g for 15 minutes to pellet platelets. […] This step was repeated two additional times. […] To complete membrane preparation, aliquots were thawed, pooled, and homogenized with 5 strokes of a Dounce homogenizer. Membranes were pelleted and washed 3 times in 10 mM triethanolamine-HCl, pH 7.4, 5 mM EDTA, and resuspended in 20-25 ml 50 mM Tris-HCl, pH 7.5, 10 mM MgCl2, 1 mM EGTA, and 1% DMSO.
High Throughput Thrombin Receptor Radioligand Binding Assay
Stock solutions (10 mM in 100% DMSO) of test compounds were further diluted in 100% DMSO. Unless otherwise indicated, 10 μl of diluted compound solutions and 90 μl of radioligand (a final concentration of 10 nM in 5% DMSO) were added to each well, and the reaction was started by the addition of 100 μl of membranes (40 μg protein/well). […] Compounds were tested at three concentrations (0.1, 1 and 10 μM).

Question: With `C[C@H]1[C@H](/C=C/c2ccc(-c3cccc(C#N)c3)cn2)[C@@H]2[C@@H](C)OC(=O)[C@]2(N)C[C@@H]1C` [Example 20G] as the compound, how does the pIC50 read?
Answer: 7.00 to 9.00

Question: With `C[C@H]1[C@H](/C=C/c2ccc(-c3cccc(F)c3)cn2)[C@@H]2[C@@H](C)OC(=O)[C@]2(N)C[C@@H]1C` [Example 20F] as the compound, how does the pIC50 read?
Answer: 7.00 to 9.00

Question: With `C[C@H]1[C@H](/C=C/c2ccc(-c3ccccc3)cn2)[C@@H]2[C@@H](C)OC(=O)[C@]2(N)C[C@@H]1C` [Example 20E] as the compound, how does the pIC50 read?
Answer: 7.00 to 9.00

Question: How did the pIC50 turn out when `C[C@H]1[C@H](/C=C/c2ccc(-c3ccccc3C#N)cn2)[C@@H]2[C@@H](C)OC(=O)[C@]2(N)C[C@@H]1C` [Example 20H] was run?
Answer: 7.00 to 9.00

Question: How did the pIC50 turn out when `CC[C@H]1[C@H](/C=C/c2ccc(-c3ccccc3)cn2)[C@@H]2[C@@H](C)OC(=O)[C@]2(C(N)=O)C[C@@H]1C` [Example 17H] was run?
Answer: 7.00 to 9.00
